Holding throughout (experiment): biochemical
Common to all, as to format: binding

For experiment [1], the target named is T1, panel of 442 kinases (Homo sapiens, UniProt O94806).
T1 construct: purchased Ambit Biosciences (scanMAXX KINOMEscan)
T1 sequence (O94806 1-890): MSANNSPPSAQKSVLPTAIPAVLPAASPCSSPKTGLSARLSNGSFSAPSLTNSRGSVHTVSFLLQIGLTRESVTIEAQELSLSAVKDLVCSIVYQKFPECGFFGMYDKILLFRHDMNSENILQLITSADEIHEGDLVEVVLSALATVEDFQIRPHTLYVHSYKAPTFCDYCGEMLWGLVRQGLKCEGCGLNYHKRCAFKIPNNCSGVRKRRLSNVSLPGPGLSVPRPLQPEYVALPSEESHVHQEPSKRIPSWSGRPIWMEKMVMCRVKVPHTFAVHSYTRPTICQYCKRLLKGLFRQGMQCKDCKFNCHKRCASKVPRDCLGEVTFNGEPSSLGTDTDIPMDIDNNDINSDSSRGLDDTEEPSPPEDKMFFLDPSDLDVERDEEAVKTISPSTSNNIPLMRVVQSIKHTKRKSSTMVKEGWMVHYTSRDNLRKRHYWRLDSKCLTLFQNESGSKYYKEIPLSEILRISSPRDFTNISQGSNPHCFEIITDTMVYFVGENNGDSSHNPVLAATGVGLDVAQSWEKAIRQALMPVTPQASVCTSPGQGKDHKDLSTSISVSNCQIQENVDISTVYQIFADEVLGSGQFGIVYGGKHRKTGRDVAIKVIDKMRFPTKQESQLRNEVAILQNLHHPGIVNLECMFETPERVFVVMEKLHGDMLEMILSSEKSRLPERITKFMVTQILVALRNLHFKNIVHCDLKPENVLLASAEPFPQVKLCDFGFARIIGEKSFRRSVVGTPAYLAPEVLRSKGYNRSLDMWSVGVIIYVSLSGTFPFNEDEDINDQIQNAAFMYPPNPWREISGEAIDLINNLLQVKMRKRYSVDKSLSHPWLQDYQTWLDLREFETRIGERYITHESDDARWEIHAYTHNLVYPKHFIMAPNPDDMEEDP
Particulars: kinase PRKD3; for remaining activity at 1 µM: read-out: PRKD3 (% of control at 1 µM).

Experiment [2] has as its target T2, panel of 442 kinases (Homo sapiens, UniProt P28482).
T2 construct: purchased Ambit Biosciences (scanMAXX KINOMEscan)
The conditions noted are these: ERK2; for remaining activity at 1 µM: read-out: % of control at 1 µM.

Experiment [3] has as its target T3, panel of 442 kinases (Homo sapiens, UniProt P45985).
T3 construct: purchased Ambit Biosciences (scanMAXX KINOMEscan)
T3 sequence (P45985 1-399): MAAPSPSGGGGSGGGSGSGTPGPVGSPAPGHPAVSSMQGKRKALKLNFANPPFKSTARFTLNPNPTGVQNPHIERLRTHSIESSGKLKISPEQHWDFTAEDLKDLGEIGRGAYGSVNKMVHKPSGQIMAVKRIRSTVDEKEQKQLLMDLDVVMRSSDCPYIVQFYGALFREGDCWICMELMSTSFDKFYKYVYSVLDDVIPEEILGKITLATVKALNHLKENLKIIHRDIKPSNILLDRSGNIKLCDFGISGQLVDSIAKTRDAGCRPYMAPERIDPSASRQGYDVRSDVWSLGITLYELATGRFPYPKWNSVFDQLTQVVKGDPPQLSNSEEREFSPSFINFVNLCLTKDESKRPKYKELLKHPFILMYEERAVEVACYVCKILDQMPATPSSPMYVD
The conditions noted are these: kinase MEK4; for remaining activity at 1 µM: read-out: % of control at 1 µM.

In experiment [4] the target is T4, panel of 442 kinases (Homo sapiens, UniProt P54762).
T4 construct: purchased Ambit Biosciences (scanMAXX KINOMEscan)
T4 sequence (P54762 18-984): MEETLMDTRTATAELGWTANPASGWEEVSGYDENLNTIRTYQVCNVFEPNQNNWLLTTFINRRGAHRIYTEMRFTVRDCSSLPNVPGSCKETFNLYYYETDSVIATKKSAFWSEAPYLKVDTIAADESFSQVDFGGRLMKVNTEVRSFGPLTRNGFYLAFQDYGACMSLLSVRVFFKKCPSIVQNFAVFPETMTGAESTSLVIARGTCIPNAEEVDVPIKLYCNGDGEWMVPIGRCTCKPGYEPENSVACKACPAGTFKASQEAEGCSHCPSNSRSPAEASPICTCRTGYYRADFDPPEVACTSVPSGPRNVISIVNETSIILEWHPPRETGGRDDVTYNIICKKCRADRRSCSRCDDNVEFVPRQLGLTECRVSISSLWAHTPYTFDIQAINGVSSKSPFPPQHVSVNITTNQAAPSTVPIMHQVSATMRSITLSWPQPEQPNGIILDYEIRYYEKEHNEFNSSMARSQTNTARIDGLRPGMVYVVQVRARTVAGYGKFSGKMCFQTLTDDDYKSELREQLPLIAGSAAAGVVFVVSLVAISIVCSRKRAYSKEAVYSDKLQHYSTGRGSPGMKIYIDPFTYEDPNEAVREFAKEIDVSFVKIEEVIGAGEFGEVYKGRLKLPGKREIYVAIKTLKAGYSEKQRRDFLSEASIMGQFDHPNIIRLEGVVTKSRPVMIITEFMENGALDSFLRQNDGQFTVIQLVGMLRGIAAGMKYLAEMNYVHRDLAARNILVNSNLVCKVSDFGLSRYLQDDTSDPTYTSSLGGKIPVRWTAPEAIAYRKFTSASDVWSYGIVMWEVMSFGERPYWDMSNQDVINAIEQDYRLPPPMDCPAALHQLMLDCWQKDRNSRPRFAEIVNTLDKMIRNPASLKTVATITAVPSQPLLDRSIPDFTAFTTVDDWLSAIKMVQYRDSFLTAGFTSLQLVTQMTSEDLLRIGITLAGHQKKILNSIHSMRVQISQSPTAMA
The conditions noted are these: EPHB1; for remaining activity at 1 µM: read-out: % of control at 1 µM.

Experiment [5] concerns the target T5, panel of 442 kinases (Homo sapiens, UniProt Q8TDR2).
T5 construct: purchased Ambit Biosciences (scanMAXX KINOMEscan)
The conditions noted are these: kinase STK35; for remaining activity at 1 µM: read-out: STK35 (% of control at 1 µM).

Experiment [6] concerns the target T6, panel of 442 kinases (Homo sapiens, UniProt Q96NX5).
T6 construct: purchased Ambit Biosciences (scanMAXX KINOMEscan)
The conditions noted are these: CAMK1G; for remaining activity at 1 µM: read-out: % of control at 1 µM.

For experiment [7], the target named is T7, panel of 442 kinases (Homo sapiens, UniProt Q9H0K1).
T7 construct: purchased Ambit Biosciences (scanMAXX KINOMEscan)
T7 sequence (Q9H0K1 whole entry): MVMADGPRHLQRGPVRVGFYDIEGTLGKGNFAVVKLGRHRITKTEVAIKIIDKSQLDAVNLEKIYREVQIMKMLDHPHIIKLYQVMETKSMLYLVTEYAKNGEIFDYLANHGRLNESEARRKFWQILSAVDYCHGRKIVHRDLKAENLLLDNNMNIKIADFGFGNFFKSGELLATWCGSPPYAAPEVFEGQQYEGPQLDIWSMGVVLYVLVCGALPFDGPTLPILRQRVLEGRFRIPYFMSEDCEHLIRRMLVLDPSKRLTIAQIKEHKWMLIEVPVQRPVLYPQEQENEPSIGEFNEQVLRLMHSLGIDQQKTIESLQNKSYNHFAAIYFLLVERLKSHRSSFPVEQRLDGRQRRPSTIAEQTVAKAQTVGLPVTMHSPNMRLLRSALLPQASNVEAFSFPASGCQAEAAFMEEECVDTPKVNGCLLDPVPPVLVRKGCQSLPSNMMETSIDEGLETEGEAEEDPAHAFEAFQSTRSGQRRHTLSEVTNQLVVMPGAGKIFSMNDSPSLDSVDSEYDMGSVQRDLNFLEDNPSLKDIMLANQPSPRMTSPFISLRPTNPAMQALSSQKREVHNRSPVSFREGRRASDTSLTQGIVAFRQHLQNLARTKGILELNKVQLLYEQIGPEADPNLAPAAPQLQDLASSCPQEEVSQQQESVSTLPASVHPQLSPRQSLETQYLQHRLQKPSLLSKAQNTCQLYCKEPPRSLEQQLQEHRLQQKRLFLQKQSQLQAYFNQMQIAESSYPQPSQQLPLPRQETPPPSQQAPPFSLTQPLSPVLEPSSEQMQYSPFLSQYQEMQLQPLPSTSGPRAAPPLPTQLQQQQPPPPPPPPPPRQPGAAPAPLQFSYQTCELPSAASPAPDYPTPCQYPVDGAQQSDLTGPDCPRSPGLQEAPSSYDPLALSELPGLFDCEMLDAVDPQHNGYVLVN
Particulars: kinase SIK2; for remaining activity at 1 µM: read-out: SIK2 (% of control at 1 µM).

The mark [8] stands for this setting: 10 µM, read-out: % of control at 10 µM.

T2 sequence (P28482 whole entry): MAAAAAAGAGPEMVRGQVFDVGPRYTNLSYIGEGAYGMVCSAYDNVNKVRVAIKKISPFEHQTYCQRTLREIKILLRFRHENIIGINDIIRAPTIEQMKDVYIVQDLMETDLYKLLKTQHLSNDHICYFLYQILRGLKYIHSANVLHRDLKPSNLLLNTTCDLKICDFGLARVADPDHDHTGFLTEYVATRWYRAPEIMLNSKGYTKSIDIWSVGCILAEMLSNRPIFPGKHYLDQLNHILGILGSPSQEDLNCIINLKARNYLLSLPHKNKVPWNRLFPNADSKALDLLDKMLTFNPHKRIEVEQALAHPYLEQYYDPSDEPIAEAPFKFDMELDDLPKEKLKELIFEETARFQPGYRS
T5 sequence (Q8TDR2 whole entry): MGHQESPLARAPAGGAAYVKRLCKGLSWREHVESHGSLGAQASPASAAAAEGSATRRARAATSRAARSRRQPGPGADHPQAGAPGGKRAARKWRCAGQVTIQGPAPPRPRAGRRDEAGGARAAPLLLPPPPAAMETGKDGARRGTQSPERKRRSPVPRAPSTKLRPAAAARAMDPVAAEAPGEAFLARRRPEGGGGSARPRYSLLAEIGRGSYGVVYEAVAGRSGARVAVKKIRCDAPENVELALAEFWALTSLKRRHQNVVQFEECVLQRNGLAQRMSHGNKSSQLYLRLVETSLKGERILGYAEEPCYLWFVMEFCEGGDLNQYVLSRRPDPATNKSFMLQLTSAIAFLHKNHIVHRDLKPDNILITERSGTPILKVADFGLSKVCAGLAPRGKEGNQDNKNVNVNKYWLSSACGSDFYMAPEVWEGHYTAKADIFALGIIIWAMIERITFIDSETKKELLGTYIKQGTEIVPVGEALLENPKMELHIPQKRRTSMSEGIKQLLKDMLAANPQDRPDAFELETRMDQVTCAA
T6 sequence (Q96NX5 whole entry): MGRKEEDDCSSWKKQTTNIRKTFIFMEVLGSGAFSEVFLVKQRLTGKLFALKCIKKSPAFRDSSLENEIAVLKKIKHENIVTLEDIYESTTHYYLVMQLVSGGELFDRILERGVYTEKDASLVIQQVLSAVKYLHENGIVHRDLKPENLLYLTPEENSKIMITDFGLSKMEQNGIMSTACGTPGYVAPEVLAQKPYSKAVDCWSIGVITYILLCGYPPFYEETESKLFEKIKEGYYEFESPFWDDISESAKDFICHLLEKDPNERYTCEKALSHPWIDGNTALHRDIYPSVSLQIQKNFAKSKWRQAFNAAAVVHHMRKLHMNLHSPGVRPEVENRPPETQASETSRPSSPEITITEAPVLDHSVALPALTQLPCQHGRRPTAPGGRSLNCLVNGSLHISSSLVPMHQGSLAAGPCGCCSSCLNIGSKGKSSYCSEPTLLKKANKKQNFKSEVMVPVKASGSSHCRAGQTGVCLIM

As for `COc1ncc(-c2ccc3nccc(-c4ccnnc4)c3c2)cc1NS(=O)(=O)c1ccc(F)cc1F` [Omipalisib], the remaining activity at 1 µM in experiment [1] was 100%; in experiment [2], 100%; in experiment [3], 48%; in experiment [4] it was 100%; in experiment [5], 100%; in experiment [6], 100%. The remaining activity at 1 µM in experiment [7] came to 100%.

Consider `Cn1c(=O)n(-c2ccc(C(C)(C)C#N)cc2)c2c3cc(-c4cnc5ccccc5c4)ccc3ncc21` [Dactolisib, 2-methyl-2-[4-(3-methyl-2-oxo-8-quinolin-3-yl-2,3-dihydroimidazo[4,5-c]quinolin-1-yl)-phenyl] propionitrile], for which the remaining activity at 1 µM in experiment [1] stood at 100%; in experiment [2] it was 88%; in experiment [3] it was 83%; in experiment [4] it was 100%; in experiment [5], 73%; in experiment [6], 87%. Besides, the remaining activity at 1 µM in experiment [7] is 82%.

For the molecule `Nc1cc(C(F)(F)F)c(-c2cc(N3CCOCC3)nc(N3CCOCC3)n2)cn1` [Buparlisib], the remaining activity at 1 µM in experiment [1] stood at 94%; in experiment [2] it was 100%; in experiment [3], 100%; in experiment [4] it was 88%; in experiment [5], 99%; in experiment [6], 100%. In addition, in experiment [7], the remaining activity at 1 µM is 100%. Besides, the remaining activity at 10 µM came to 100% in experiment [1] (10 µM, read-out: PRKD3 (% of control at 10 µM)); 78% in experiment [2] (setting [8]); 100% in experiment [3] (setting [8]); 100% in experiment [4] (setting [8]); 98% in experiment [5] (10 µM, read-out: STK35 (% of control at 10 µM)); 100% in experiment [6] (setting [8]). Moreover, the remaining activity at 10 µM in experiment [7] (10 µM, read-out: SIK2 (% of control at 10 µM)) was 93%.

Regarding `FC(F)c1nc2ccccc2n1-c1nc(N2CCOCC2)nc(N2CCOCC2)n1` [ZSTK474, 2-(difluoromethyl)-1-[4,6-di(4-morpholinyl)-1,3,5-triazin-2-yl]-1H-benzimidazole], the remaining activity at 1 µM was determined as 100% in experiment [1]; 100% in experiment [2]; 63% in experiment [3]; 99% in experiment [4]; 89% in experiment [5]; 91% in experiment [6]. The remaining activity at 1 µM in experiment [7] amounted to 78%.

For the origin of these results see PMC5564600 (Oncotarget, 2017).
